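These data come from cells grown in 96-well plates and exposed to compound for 48 hours at five concentrations. GI50: concentration for 50% inhibition of growth.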 Activity calls are given as the source filed them. Rule as the data show it: active = GI50 up to about 1.1 µM and inactive = higher.
How the values were obtained:
Test in all cases: growth of human tumour cells (NCI), 48 h
[1] = tested on: SNB-19
[2] = tested on: SN12C
[3] = tested on: Malme-3M
[4] = tested on: CCRF-CEM
[5] = tested on: KM12
[6] = tested on: M14
[7] = tested on: A549
[8] = tested on: SK-MEL-28
[9] = tested on: HCC 2998
[10] = tested on: RXF 393
[11] = tested on: UO-31
[12] = tested on: OVCAR-8
[13] = tested on: SF-268
[14] = tested on: NCI-H522
[15] = tested on: K562
[16] = tested on: U-251
[17] = tested on: IGROV-1
[18] = tested on: NCI/ADR-RES

Row | Compound | GI50 [1] | GI50 [2] | GI50 [3] | GI50 [4] | GI50 [5] | GI50 [6] | GI50 [7] | GI50 [8] | GI50 [9] | GI50 [10] | GI50 [11] | GI50 [12] | GI50 [13] | GI50 [14] | GI50 [15] | GI50 [16] | GI50 [17] | GI50 [18]
1 | CNC(=O)OCc1nccc2c(C)c3[nH]c4ccc(OC)cc4c3cc12 | 3.78 µM (inactive) | 19.1 µM (inactive) | 7.98 µM (inactive) | 1.51 µM (inactive) | 3.78 µM (inactive) | 9.12 µM (inactive) | 4.9 µM (inactive) | 9.73 µM (inactive) | 5.57 µM (inactive) | 3.16 µM (inactive) | 3.35 µM (inactive) | 3.1 µM (inactive) | 10.5 µM (inactive) | 5.09 µM (inactive) | 2.7 µM (inactive) | 5.12 µM (inactive) | 4.8 µM (inactive) | –
2 | NC1=NC(=O)/C(=C/c2ccccc2[N+](=O)[O-])C(N)=N1 | > 100 µM (inactive) | > 100 µM (inactive) | > 100 µM (inactive) | > 100 µM (inactive) | > 100 µM (inactive) | > 100 µM (inactive) | > 100 µM (inactive) | > 100 µM (inactive) | > 100 µM (inactive) | > 100 µM (inactive) | > 100 µM (inactive) | > 100 µM (inactive) | – | > 100 µM (inactive) | > 100 µM (inactive) | > 100 µM (inactive) | > 100 µM (inactive) | –
3 | C=CCN(CC=C)CC(C(C)=O)C(c1ccccc1)c1c(O)c2ccccc2oc1=O (centres undefined) | 15.6 µM (inactive) | > 100 µM (inactive) | > 100 µM (inactive) | > 100 µM (inactive) | 19 µM (inactive) | > 100 µM (inactive) | > 100 µM (inactive) | > 100 µM (inactive) | > 100 µM (inactive) | > 100 µM (inactive) | 18.2 µM (inactive) | > 100 µM (inactive) | > 100 µM (inactive) | 82.4 µM (inactive) | > 100 µM (inactive) | > 100 µM (inactive) | > 100 µM (inactive) | –
4 | Nn1c(=O)n(Cc2ccccc2)n(-c2ccccc2)c1=O | > 100 µM (inactive) | > 100 µM (inactive) | > 100 µM (inactive) | > 100 µM (inactive) | > 100 µM (inactive) | > 100 µM (inactive) | > 100 µM (inactive) | > 100 µM (inactive) | > 100 µM (inactive) | > 100 µM (inactive) | > 100 µM (inactive) | > 100 µM (inactive) | > 100 µM (inactive) | > 100 µM (inactive) | > 100 µM (inactive) | > 100 µM (inactive) | > 100 µM (inactive) | –
5 | Cc1ccc(C(=O)/C=C2\Nc3c(c(=O)oc4ccccc34)N=C2NC23CC4CC(CC(C4)C2)C3)cc1 | > 100 µM (inactive) | > 100 µM (inactive) | > 100 µM (inactive) | > 100 µM (inactive) | > 100 µM (inactive) | > 100 µM (inactive) | > 100 µM (inactive) | > 100 µM (inactive) | > 100 µM (inactive) | > 100 µM (inactive) | > 100 µM (inactive) | > 100 µM (inactive) | > 100 µM (inactive) | > 100 µM (inactive) | > 100 µM (inactive) | > 100 µM (inactive) | > 100 µM (inactive) | –
6 | Cc1ccccc1NC(=O)/C(=N/NC(=O)CC#N)C1C(=O)N(c2ccccc2)N=C1N (centres undefined) | > 100 µM (inactive) | > 100 µM (inactive) | > 100 µM (inactive) | 31.3 µM (inactive) | > 100 µM (inactive) | > 100 µM (inactive) | > 100 µM (inactive) | > 100 µM (inactive) | > 100 µM (inactive) | > 100 µM (inactive) | > 100 µM (inactive) | > 100 µM (inactive) | > 100 µM (inactive) | 57.1 µM (inactive) | 75.5 µM (inactive) | > 100 µM (inactive) | > 100 µM (inactive) | –
7 | CCOC(=O)COc1ccccc1/C=C1\CCC(CN(C)C)C1=O (centres undefined) | 9.2 µM (inactive) | 5.96 µM (inactive) | 5.19 µM (inactive) | 1.1 µM (active) | 3.71 µM (inactive) | 8.71 µM (inactive) | 21.5 µM (inactive) | 2.62 µM (inactive) | 2.46 µM (inactive) | 2.93 µM (inactive) | 16.3 µM (inactive) | 4.2 µM (inactive) | 5.45 µM (inactive) | 2.72 µM (inactive) | 1.49 µM (inactive) | 8 µM (inactive) | 13.3 µM (inactive) | 3.48 µM (inactive)
8 | CC1=CP(=O)(OC(C)C)CC(C)=C1Cl (centres undefined) | > 100 µM (inactive) | > 100 µM (inactive) | > 100 µM (inactive) | 34.4 µM (inactive) | > 100 µM (inactive) | 51.1 µM (inactive) | > 100 µM (inactive) | > 100 µM (inactive) | > 100 µM (inactive) | > 100 µM (inactive) | > 100 µM (inactive) | > 100 µM (inactive) | 82.6 µM (inactive) | 52.6 µM (inactive) | > 100 µM (inactive) | > 100 µM (inactive) | > 100 µM (inactive) | –
9 | COc1ccc2cccc(C(=O)c3ccc(C)c4c3CCC4)c2c1 | > 100 µM (inactive) | 71.9 µM (inactive) | 29.2 µM (inactive) | 26.2 µM (inactive) | 26.1 µM (inactive) | 21.4 µM (inactive) | 49.9 µM (inactive) | > 100 µM (inactive) | 19.6 µM (inactive) | 41.4 µM (inactive) | 30.2 µM (inactive) | 43.2 µM (inactive) | > 100 µM (inactive) | 22.5 µM (inactive) | 30.8 µM (inactive) | 53.7 µM (inactive) | 24.6 µM (inactive) | –
10 | O=c1c2c([nH]c3cc4c(cc13)OCO4)-c1ccccc1C2 | 37.1 µM (inactive) | 30.3 µM (inactive) | 23.2 µM (inactive) | 17.7 µM (inactive) | 18.6 µM (inactive) | 20.6 µM (inactive) | 27.1 µM (inactive) | 22.6 µM (inactive) | 24.4 µM (inactive) | 16.4 µM (inactive) | 24.8 µM (inactive) | 29.8 µM (inactive) | 36.2 µM (inactive) | 22.4 µM (inactive) | 27.2 µM (inactive) | 17.2 µM (inactive) | 17.7 µM (inactive) | –
11 | O=C(N[C@H]1CC2(C=C(I)C(=O)C(I)=C2)OC1=O)OCc1ccccc1 | 21.8 µM (inactive) | 18.2 µM (inactive) | 17.3 µM (inactive) | 2.61 µM (inactive) | 16 µM (inactive) | 17.2 µM (inactive) | 42.8 µM (inactive) | 18.5 µM (inactive) | 17.9 µM (inactive) | 15.2 µM (inactive) | 18.2 µM (inactive) | 17.3 µM (inactive) | 18.1 µM (inactive) | 13.4 µM (inactive) | 10.4 µM (inactive) | 17.3 µM (inactive) | – | –
12 | O=S1(=O)N2CN3CN(C2)CN1C3 | 238 µM (inactive) | 34.9 µM (inactive) | 129 µM (inactive) | > 31.6 µM (inactive) | 93.8 µM (inactive) | 36.2 µM (inactive) | 280 µM (inactive) | > 83.6 µM (inactive) | 255 µM (inactive) | 56.9 µM (inactive) | 182 µM (inactive) | > 86.5 µM (inactive) | > 58.3 µM (inactive) | 177 µM (inactive) | > 31.6 µM (inactive) | 331 µM (inactive) | 278 µM (inactive) | > 100 µM (inactive)

Source: ChEMBL document CHEMBL1201862, “PubChem BioAssay data set” (2004)
